Square brackets hold non-standard residues; d marks the D form. Peptide text beside a SMILES is read from it. dPhe(4-CF3) = N[C@H](Cc1ccc(C(F)(F)F)cc1)C(=O)O; Nle = CCCC[C@H](N)C(=O)O
Tests used:
hMC1R = hMC1R (Homo sapiens, UniProt Q01726); assay: cAMP accumulation, HEK293 cells expressing hMC1R; format: cell-based; settings: hMC1R agonist EC50 versus other melanocortin receptors
MC3R Asp158Ala mutation = settings: MC3R mutant versus wild type; cited from earlier work
[1] = test system: hMC1R Asp117Ala and Asp121Ala mutants; settings: hMC1R mutants versus wild type; cited from earlier work
[2] = test system: hMC1R Asp117Ala and Asp121Ala mutants; settings: hMC1R mutants versus wild type; cited from earlier work; remark: listed apart in the source

Sequence of hMC1R (Q01726 whole entry): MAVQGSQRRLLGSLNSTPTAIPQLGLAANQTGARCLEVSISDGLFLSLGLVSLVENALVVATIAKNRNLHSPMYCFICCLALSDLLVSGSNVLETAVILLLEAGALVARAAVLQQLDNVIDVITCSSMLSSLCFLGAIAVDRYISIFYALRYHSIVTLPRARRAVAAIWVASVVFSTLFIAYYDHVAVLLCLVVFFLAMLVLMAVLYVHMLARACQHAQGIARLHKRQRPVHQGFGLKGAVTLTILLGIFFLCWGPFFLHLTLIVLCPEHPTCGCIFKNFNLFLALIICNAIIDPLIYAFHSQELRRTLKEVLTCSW

Compound | hMC1R selectivity to other MCR subtypes (hMC1R) | increase for the EC50 value, Asp158Ala mutation (MC3R Asp158Ala mutation) | increase on the IC50 value for the Asp117Ala and Asp121Ala mutants [1] | increase on the EC50 value for the Asp117Ala and Asp121Ala mutants [2]
CCCC[C@H](NC(=O)[C@@H](Cc1ccc(C(F)(F)F)cc1)NC(=O)[C@H](Cc1cnc[nH]1)NC(C)=O)C(=O)N[C@@H](Cc1c[nH]c2ccccc12)C(N)=O [Peptide 5, Ac-His-DPhe(4-CF3)-Nle-Trp-NH2] (Ac-H[dPhe(4-CF3)][Nle]W-NH2) | at least 25 fold | – | – | –
NDP-α-MSH | – | more than 350 fold | around 10 fold | around 10 fold

Reference: PMC6003700 (European journal of medicinal chemistry, 2018)
